Data published in US10131634B2, “Method of treating pain” (Poseida Therapeutics, Inc., priority 2011, dated 2018).

Experiments:
wild type rats [1] = test: Side effects in wild type rats dosed with compound; format: in vivo, rat
Method: The quinoline structure Formula 1a is tested in cells and rats.

wild type rats [2] = test: Pain related behaviours after colon mustard (MO) infusion in wild type rats; format: in vivo, rat

| SMILES | cardiotoxicity (wild type rats [1]) | side effects (wild type rats [1]) | inhibition of pain (wild type rats [2]; colon mustard infusion, FIG. 1 (lower body licking)) | doses to inhibit pain related behaviors induced by intracolonic MO infusion (morphine equivalency) (wild type rats [2]; pre-treatment, s.c., FIGS. 7-9) |
| --- | --- | --- | --- | --- |
| Cc1cc(N2CCCCC2)nc2ccccc12 [Formula 1a] | no cardiotoxicity | no obvious side effects | dose responsive inhibition of pain | – |
| CN1CC[C@]23c4c5ccc(O)c4O[C@H]2[C@@H](O)C=C[C@H]3[C@H]1C5 [morphine, reference compound] | – | – | – | requires much higher doses |
